# In patent publication US5840684A, “Glycopeptide antibiotic derivatives” (Eli Lilly and Company, priority 1995, dated 1998):
# Legend:
# [1] = test system: vancomycin-resistant enterococci; assay: broth micro-dilution, mean geometric MIC; type: cell-based, Enterococcus faecium and Enterococcus faecalis; conditions: enterococci, 24-hour incubation
# [2] = test system: Enterococcus gallinarum 245; assay: broth micro-dilution MIC; type: cell-based; conditions: Enterococcus gallinarum 245
# Experimental: (§1) The formula I compounds have in vitro and in vivo activity against Gram-positive pathogenic bacteria. The MIC's were determined using a standard broth micro-dilution assay.
# Entercoccus faecium 180 = assay: broth micro-dilution MIC; type: cell-based; conditions: Entercoccus faecium 180
# Experimental: as §1
# [3] = test system: Staphylococcus haemolyticus 105; assay: broth micro-dilution MIC; type: cell-based
# Experimental: as §1
# [4] = test system: Staphylococcus haemolyticus 415; assay: broth micro-dilution MIC; type: cell-based
# Experimental: as §1
# [5] = test system: Streptococcus pneumoniae P1; assay: broth micro-dilution MIC; type: cell-based
# Experimental: as §1
# Entercoccus faecium 2041 = assay: broth micro-dilution MIC; type: cell-based; conditions: Entercoccus faecium 2041
# Experimental: as §1
# [6] = test system: Staphylococcus epidermidis 270; assay: broth micro-dilution MIC; type: cell-based
# Experimental: as §1
# [7] = test system: Staphylococcus aureus S13E; type: cell-based
# Experimental: (§2) The MIC's were determined using a standard broth micro-dilution assay.
# [8] = test system: Staphylococcus aureus SA1199B; type: cell-based
# Experimental: as §2
# Streptococcus pneumoniae = assay: mouse protection, experimentally-induced infection; type: in vivo; conditions: mice infected with Streptococcus pneumoniae, two doses
# Streptococcus pyogenes = assay: mouse protection, experimentally-induced infection; type: in vivo; conditions: mice infected with Streptococcus pyogenes, two doses
# [9] = test system: vancomycin-susceptible enterococci; assay: broth micro-dilution, mean geometric MIC; type: cell-based, Enterococcus faecium and Enterococcus faecalis; conditions: enterococci, 24-hour incubation
# [10] = test system: Staphylococcus aureus 489; assay: broth micro-dilution MIC; type: cell-based
# Experimental: as §2
# [11] = test system: Staphylococcus aureus X400; assay: broth micro-dilution MIC; type: cell-based
# Experimental: as §2
# [12] = test system: Staphylococcus aureus SA1199; assay: broth micro-dilution MIC; type: cell-based
# Experimental: as §2
# Entercoccus faecium 276 = assay: broth micro-dilution MIC; type: cell-based
# Experimental: as §2
# [13] = test system: Streptococcus pyogenes C203; assay: broth micro-dilution MIC; type: cell-based
# Experimental: as §2
# [14] = test system: Staphylococcus aureus 447; assay: broth micro-dilution MIC; type: cell-based
# Experimental: as §2
# [15] = test system: Staphylococcus aureus 446; assay: broth micro-dilution MIC; type: cell-based
# Experimental: as §2
# [16] = test system: Staphylococcus aureus 491; assay: broth micro-dilution MIC; type: cell-based
# Experimental: as §2
# [17] = test system: Staphylococcus aureus SA1199A; assay: broth micro-dilution MIC; type: cell-based
# Experimental: as §2
# [18] = test system: Staphylococcus aureus X778; assay: broth micro-dilution MIC; type: cell-based
# Experimental: as §2
# [19] = test system: Entercoccus faecium 180-1; assay: broth micro-dilution MIC; type: cell-based
# Experimental: as §2
# [20] = test system: Haemophilus influenzae RD; assay: broth micro-dilution MIC; type: cell-based; conditions: Haemophilus influenzae RD
# Experimental: as §1
Compound,"mean geometric MIC, Vancomycin Resistant Strains [1]",MIC [2],MIC (Entercoccus faecium 180),MIC [3],MIC [4],MIC [5],MIC (Entercoccus faecium 2041),MIC [6],MIC [7],MIC [8],ED50 (Streptococcus pneumoniae),ED50 (Streptococcus pyogenes),"mean geometric MIC, Vancomycin Sensitive Strains [9]",MIC [10],MIC [12],MIC (Entercoccus faecium 276),MIC [13],MIC [14],MIC [15],MIC [16],other results
CNC(CC(C)C)C(=O)NC1C(=O)NC(CC(N)=O)C(=O)NC2C(=O)NC3C(=O)NC(C(=O)NC(C(=O)O)c4cc(O)cc(O)c4-c4cc3ccc4O)C(OC3CC(C)(N)C(O)C(C)O3)c3ccc(c(Cl)c3)Oc3cc2cc(c3OC2OC(CO)C(O)C(O)C2OC2CC(C)(NCc3cccc(Oc4cccc(C(F)(F)F)c4)c3)C(O)C(C)O2)Oc2ccc(cc2Cl)C1O (stereo not drawn) [Compound 111],0.71 µg/mL,4 µg/mL,≤ 0.06 µg/mL,1 µg/mL,4 µg/mL,≤ 0.06 µg/mL,≤ 0.06 µg/mL,1 µg/mL,1 µg/mL,1 µg/mL,0.084 mg/kg/2,0.099 mg/kg/2,0.031 µg/mL,1 µg/mL,2 µg/mL,0.5 µg/mL,≤ 0.06 µg/mL,1 µg/mL,2 µg/mL,2 µg/mL,MIC [11]: 1 µg/mL; MIC [17]: 0.5 µg/mL; MIC [18]: 2 µg/mL; MIC [19]: ≤ 0.06 µg/mL
CCCc1ccc(-c2ccc(CNC3(C)CC(OC4C(Oc5c6cc7cc5Oc5ccc(cc5Cl)C(OC5CC(C)(N)C(O)C(C)O5)C5NC(=O)C(NC(=O)C7NC(=O)C(CC(N)=O)NC(=O)C(NC(=O)C(CC(C)C)NC)C(O)c7ccc(c(Cl)c7)O6)c6ccc(O)c(c6)-c6c(O)cc(O)cc6C(C(=O)O)NC5=O)OC(CO)C(O)C4O)OC(C)C3O)cc2)cc1 (stereo not drawn) [Compound 107],0.59 µg/mL,2 µg/mL,0.125 µg/mL,2 µg/mL,2 µg/mL,≤ 0.06 µg/mL,0.5 µg/mL,0.5 µg/mL,2 µg/mL,2 µg/mL,0.092 mg/kg/2,0.27 mg/kg/2,0.082 µg/mL,1 µg/mL,1 µg/mL,1 µg/mL,≤ 0.06 µg/mL,1 µg/mL,2 µg/mL,1 µg/mL,MIC [11]: 1 µg/mL; MIC [17]: ≤ 0.06 µg/mL; MIC [18]: 0.5 µg/mL; MIC [19]: ≤ 0.06 µg/mL
CNC(CC(C)C)C(=O)NC1C(=O)NC(CC(N)=O)C(=O)NC2C(=O)NC3C(=O)NC(C(=O)NC(C(=O)O)c4cc(O)cc(O)c4-c4cc3ccc4O)C(OC3CC(C)(N)C(O)C(C)O3)c3ccc(c(Cl)c3)Oc3cc2cc(c3OC2OC(CO)C(O)C(O)C2OC2CC(C)(NCc3ccc(OC(F)(F)C(F)F)cc3)C(O)C(C)O2)Oc2ccc(cc2Cl)C1O (stereo not drawn) [Compound 121],1.0 µg/mL,2 µg/mL,≤ 0.06 µg/mL,2 µg/mL,2 µg/mL,≤ 0.06 µg/mL,≤ 0.06 µg/mL,1 µg/mL,≤ 0.06 µg/mL,0.25 µg/mL,0.047 mg/kg/2,0.041 mg/kg/2,0.063 µg/mL,1 µg/mL,1 µg/mL,≤ 0.06 µg/mL,≤ 0.06 µg/mL,0.5 µg/mL,2 µg/mL,≤ 0.06 µg/mL,MIC [20]: 16 µg/mL; MIC [17]: ≤ 0.06 µg/mL; MIC [18]: 0.5 µg/mL; MIC [19]: ≤ 0.06 µg/mL
CCc1ccc(-c2ccc(CNC3(C)CC(OC4C(Oc5c6cc7cc5Oc5ccc(cc5Cl)C(OC5CC(C)(N)C(O)C(C)O5)C5NC(=O)C(NC(=O)C7NC(=O)C(CC(N)=O)NC(=O)C(NC(=O)C(CC(C)C)NC)C(O)c7ccc(c(Cl)c7)O6)c6ccc(O)c(c6)-c6c(O)cc(O)cc6C(C(=O)O)NC5=O)OC(CO)C(O)C4O)OC(C)C3O)cc2)cc1 (stereo not drawn) [Compound 90],0.71 µg/mL,2 µg/mL,0.25 µg/mL,2 µg/mL,2 µg/mL,≤ 0.06 µg/mL,0.125 µg/mL,1 µg/mL,1 µg/mL,1 µg/mL,0.049 mg/kg/2,0.058 mg/kg/2,0.041 µg/mL,2 µg/mL,2 µg/mL,2 µg/mL,≤ 0.06 µg/mL,1 µg/mL,2 µg/mL,2 µg/mL,MIC [11]: 1 µg/mL; MIC [17]: 0.5 µg/mL; MIC [18]: 1 µg/mL; MIC [19]: ≤ 0.06 µg/mL
